Data published in patent publication US11963996B2, “Method of treating knee pain” (ORTHOTROPHIX, Inc., priority 2018, dated 2024).
“Also recorded” adds a separate entry of the source.

How the values were obtained:
[1] = test system: subjects with bilateral patello-femoral knee osteoarthritis; test: Example 2: re-analysis of the study with stricter MRI image qualification (79 subjects); assay type: in vivo, human
Method: After the data analyses in EXAMPLE 1, a few more MRI images were questioned with regard to their technical quality to enable assessment of periarticular bone shape change over time. In order to assure the quality of the overall analysis results, a stricter qualification standard was applied to the MRI images used in EXAMPLE 1, and requalification was performed. Seventy-nine (79) subjects were requalified. The MRI knee images of these subjects were re-analyzed for their periarticular bone shape changes, as well as their correlations with the changes of tibiofemoral cartilage thickness and pain, respectively, in the same manner as described in EXAMPLE 1.
The requalified 79 subjects were included in the efficacy analysis per the Statistical Analysis Plan.

[2] = test system: subjects with bilateral patello-femoral knee osteoarthritis; test: Phase 2 randomized double-blind placebo-controlled study of TPX-100: patient-reported outcomes (KOOS, WOMAC); assay type: in vivo, human; conditions: for KOOS ADL (knee function in activities of daily living) improvement over baseline / WOMAC Function subscale improvement: 200 mg intra-articular x4 once weekly, 6 and 12 months; for KOOS ADL (knee function in activities of daily living) improvement over baseline: Index vs Control (placebo) Knees
Method: A multicenter, randomized double-blind, placebo-controlled study was designed to investigate the safety, tolerability, pharmacokinetics, and efficacy of TPX-100 administered in four weekly doses in subjects with bilateral patello-femoral knee osteoarthritis. The study was conducted under an open IND (investigational new drug application) at CDER (Center for Drug Evaluation and Research) of the U.S. FDA (The United States Food and Drug Administration) in compliance with GCP (Good Clinical Practice) and ICH (International Conference on Harmonization of Technical Requirements for Registration of Pharmaceuticals for Human Use) guidelines. Eighteen (18) orthopedic, rheumatologic and family practice centers in the U.S. participated in the study.
The study was divided into Part A and Part B. The Part A was designed to evaluate safety of intra-articular (I.A.) administration of TPX-100 at different dosing levels (20, 50, 100, or 200 mg per injection in sequential cohorts) in the subjects with osteoarthritis of the knees and to select a dose for Part B. Part B was to evaluate safety and efficacy of the selected dose of TPX-100.
Subjects in Part A were enrolled in sequential cohorts and randomized to receive 20, 50, 100 or 200 mg of TPX-100 in one knee (Index Knee) and identical placebo in the contralateral (Control) knee. Subjects, sites and sponsor and central MRI readers were blinded as to treatment assignment. A Safety Review Committee (SRC) evaluated safety in each dosing cohort. The SRC assessed safety and determined whether the next higher dosing regimen could be enrolled. All dosing cohorts in Part A were completed and analyzed with regard to safety prior to dose selection and initiation of Part B.
Part A included four (4) intra-articular (I.A.) injections, one per week, in sequential dosing cohorts of 20, 50, 100 and 200 mg TPX-100 versus placebo. Six (6) subjects were enrolled in 20, 50, and 100 mg cohorts, respectively, and nine (9) subjects were enrolled in the 200 mg cohort.
The 200 mg dose was selected for Part B based on safety review and the approval of the SRC. […] Per the Statistical Analysis Plan, these subjects were combined with the nine subjects in the 200 mg cohort of Part A for the efficacy analysis. In total, data from 93 subjects was analyzed for drug efficacy, each of whom received 4 once-weekly injections of TPX-100, 200 mg/dose, in the Index knee and identical placebo in the contralateral knee, as randomly assigned.
In both Part A and Part B, subjects received 4, once-weekly doses of active drug in the knee randomized to active drug in the Index knee and placebo in the contralateral (Control) knee, delivered by the intra-articular route. No other doses of drug or placebo were administered. All subjects visited their respective clinical sites at 3, 6, and 12 months after the first dosing for their safety and efficacy assessments.
On the first dosing day, the randomized subjects were assessed by physical examinations and vital signs. Further, they completed the Knee injury and Osteoarthritis Outcome Score (KOOS), which includes the Western Ontario and McMaster Universities Osteoarthritis Index (WOMAC). The KOOS questionnaire assesses knee-specific activities of daily living, sports and recreation, knee-related quality of life, other symptoms such as stiffness, and knee pain. The KOOS has been used extensively in longitudinal studies of knee osteoarthritis. After assessments were completed, subjects received one intra-articular injection in each knee, with each injection prepared from the vial(s) marked for that knee. One knee received TPX-100, and the contralateral knee received placebo with subject, site, and sponsor blinded to treatment assignment. Subjects were monitored for adverse events during the injections and for a few hours after the injections. Vital signs were also monitored after the injections. […]

[3] = test system: rat long bone fracture; conditions: cited from earlier work
[4] = Example 2, 79 requalified subjects, Index vs Control knees, 6 or 12 month, or both
[5] = Example 2, Index vs Control Knees, 12 months
[6] = 200 mg IA x4, Index vs Control Knees, 12 months

TPX-100: synthetic peptide consisting of 23 amino acids, TDLQERGDNDISPFSGDGQPFKD, derived from human Matrix Extracellular Phosphoglycoprotein (MEPE)
KOOS ADL improvement [1, 4]: clinically meaningful and statistically significant (p<0.05) improvements
KOOS Knee-related QOL improvement [1, 4]: clinically meaningful and statistically significant (p<0.05) improvements
WOMAC Function improvement [1, 4]: clinically meaningful and statistically significant (p<0.05) improvements
3D periarticular femur bone shape change (bone shape score) ([1]; Example 2, Index vs Control Knees, 6 and 12 months): statistically significant (p<0.05) delay of femur bone shape change
KOOS Pain subscale improvement [1, 5]: clinically meaningful improvement in Index Knees with a trend towards statistical significance (p<0.09)
Pain bending knee fully (KOOS Pain question) [1, 5]: significantly improved (p<0.05)
Pain frequency (KOOS Pain question) [1, 5]: significantly improved (p<0.05)
Pain going up or down stairs (KOOS Pain question) [1, 5]: significantly improved (p<0.05)
3D bone shape change in patella in pain frequency responders ([1]; Example 2, responders): eventually no change in the 3D bone shape in patella
Pain frequency in responders, baseline to 12 months ([1]; Example 2, responders to TPX-100): decreased from daily pain at baseline to semi-monthly pain at 12 months
KOOS Sports and Recreation subscale improvement ([2]; 200 mg IA x4, Index vs Control Knees, 6 months): clinically meaningful and statistically significant improvement
KOOS Knee-related QOL subscale improvement [2, 6]: clinically meaningful and statistically significant improvement
KOOS Pain subscale improvement [2, 6]: only a statistical trend (p<0.09) of improvement; also recorded: clinically meaningful improvement in Index Knees as compared to Control Knees at 12 months, with a trend towards statistical significance (p<0.09)
Pain Frequency (KOOS Pain question 1) [2, 6]: statistically significant improvement in Index Knees as compared to Control Knees (p<0.05); also recorded: significantly reduced (p<0.05)
Pain going up or down stairs (KOOS Pain question) [2, 6]: statistically significant improvement in Index Knees as compared to Control Knees (p<0.05); also recorded: significantly improved (p<0.05)
WOMAC Pain domain improvement [2, 6]: clinically meaningful improvement in Index Knees at 12 months compared with Control knees, although the difference did not reach statistical significance
KOOS ADL (knee function in activities of daily living) improvement over baseline [2]: clinically meaningful and statistically significant (p<0.05) improvements
KOOS ADL (knee function in activities of daily living) improvement over baseline ([2]; listed as peptide of SEQ ID No. 1): clinically meaningful and statistically significant (p=0.008) improvement
WOMAC Function subscale improvement ([2]; Index vs Control Knees): same robust improvement in Index Knees as compared to Control Knees
WOMAC Function subscale improvement ([2]; Index vs Control Knees, listed as peptide of SEQ ID No. 1): clinically meaningful and statistically significant (p=0.008) improvement
WOMAC Total score improvement ([2]; Index vs Control Knees, 6 or 12 months, or both): significant improvements in favor of Index knees
Decrease in use of analgesics by participants ([2]; overall, over the 12-month study period): 62.5%
Pain frequency in responders, baseline to 12 months ([2]; responders to treatment, 12 months): decreased from daily pain at baseline to semi-monthly pain at 12 months
Pain frequency in responders, baseline to 12 months ([2]; responders to treatment, 12 months, listed as peptide of SEQ ID No. 1): semi-weekly
Improvement of pain frequency score in responder group ([2]; responders to treatment, baseline score 3 (daily), at 12 months): approximately 1.5 points
Tolerability in in vivo bone formation and dentin formation studies ([3]; rat bone formation and dentin formation studies): well tolerated
Bone fracture healing ([3]; subcutaneous injection): acceleration of bone fracture healing
